Test system: KRAS-mutant PDC multicell tumor spheroid viability
Experiment: Anticancer human tumor 521955-158-R2-J5-PDC patient-derived pancreatic carcinoma cell line growth inhibition [KRAS2]
Settings: for IC50: curve of first compound; for viability, T/C: stronger effect = lower value
In short: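 Combination screen of spheroid viability in tumor-cell co-cultures with endothelial (HUVEC) and mesenchymal stem cell stroma. Each agent was tested in half-log dilutions, topping at clinical Cmax or at 10 microM without a known Cmax.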

[1] = second compound 0.1 µM, first compound 0.0316 µM
[2] = second compound 0.1 µM, first compound 0.1 µM
[3] = second compound 0.1 µM, first compound 0.316 µM
[4] = second compound 0.1 µM, first compound 1 µM
[5] = second compound 0.1 µM, first compound 3.16 µM
[6] = second compound 0.316 µM, first compound 0.0316 µM
[7] = second compound 0.316 µM, first compound 0.1 µM
[8] = second compound 0.316 µM, first compound 0.316 µM
[9] = second compound 0.316 µM, first compound 1 µM
[10] = second compound 0.316 µM, first compound 3.16 µM
[11] = second compound 1 µM, first compound 0.0316 µM
[12] = second compound 1 µM, first compound 0.1 µM
[13] = second compound 1 µM, first compound 0.316 µM
[14] = second compound 1 µM, first compound 1 µM
[15] = second compound 1 µM, first compound 3.16 µM
[16] = second compound 3.16 µM, first compound 0.0316 µM
[17] = second compound 3.16 µM, first compound 0.1 µM
[18] = second compound 3.16 µM, first compound 0.316 µM
[19] = second compound 3.16 µM, first compound 1 µM
[20] = second compound 3.16 µM, first compound 3.16 µM
[21] = second compound 10 µM, first compound 0.0316 µM
[22] = second compound 10 µM, first compound 0.1 µM
[23] = second compound 10 µM, first compound 0.316 µM
[24] = second compound 10 µM, first compound 1 µM
[25] = second compound 10 µM, first compound 3.16 µM
[26] = second compound 0.1 µM, first compound 0.01 µM
[27] = second compound 0.316 µM, first compound 0.01 µM
[28] = second compound 1 µM, first compound 0.01 µM
[29] = second compound 3.16 µM, first compound 0.01 µM
[30] = second compound 10 µM, first compound 0.01 µM
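Also: viability read after seven days of drug exposure.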

| SMILES | IC50 (second compound 0.1 µM) [nM] | IC50 (second compound 0.316 µM) [nM] | IC50 (second compound 1 µM) [nM] | IC50 (second compound 3.16 µM) [nM] | IC50 (second compound 10 µM) [nM] | viability, T/C [1] [%] | viability, T/C [2] [%] | viability, T/C [3] [%] | viability, T/C [4] [%] | viability, T/C [5] [%] | viability, T/C [6] [%] | viability, T/C [7] [%] | viability, T/C [8] [%] | viability, T/C [9] [%] | viability, T/C [10] [%] | viability, T/C [11] [%] | viability, T/C [12] [%] | viability, T/C [16] [%] | viability, T/C [17] [%] | viability, T/C [22] [%] | also measured |
| --- | --- | --- | --- | --- | --- | --- | --- | --- | --- | --- | --- | --- | --- | --- | --- | --- | --- | --- | --- | --- | --- |
| CCNC(=O)CC1N=C(c2ccc(Cl)cc2)c2cc(OC)ccc2-n2c(C)nnc21 (centres undefined) + COc1cc2nc(C)nc(NC(C)c3cc(N)cc(C(F)(F)F)c3)c2cc1OC1CCOC1 | 405 | 293 | 333 | 320 | 418 | 90 | 79.5 | 52.6 | 36.7 | 32.4 | 104 | 89.9 | 47 | 30.8 | 30 | 89.2 | 85.2 | 98.5 | 87.7 | 96.5 | viability, T/C (second compound 0.1 µM, first compound 10 µM): 26.9%; viability, T/C (second compound 0.316 µM, first compound 10 µM): 26.6%; viability, T/C [13]: 50.1%; viability, T/C [14]: 34.2%; viability, T/C [15]: 28.2%; viability, T/C (second compound 1 µM, first compound 10 µM): 28%; viability, T/C [18]: 48.4%; viability, T/C [19]: 39.6%; viability, T/C [20]: 28%; viability, T/C (second compound 3.16 µM, first compound 10 µM): 30.8%; viability, T/C [21]: 105%; viability, T/C [23]: 49.9%; viability, T/C [24]: 33.4%; viability, T/C [25]: 18.6%; viability, T/C (second compound 10 µM, first compound 10 µM): 8.29% |
| CC(C)n1nc(-c2ccc3oc(N)nc3c2)c2c(N)ncnc21 + C=CC(=O)N1CCN(c2nc(=O)n(-c3c(C)ccnc3C(C)C)c3nc(-c4c(O)cccc4F)c(F)cc23)C(C)C1 | 9.61 | 7.5 | 7.19 | 3.43 | 0.703 | 36.7 | 27.2 | – | – | – | 35.5 | 26.9 | – | – | – | 36.6 | 24 | 26.9 | 23.1 | 18.8 | viability, T/C (second compound 0.1 µM, first compound 0.000316 µM): 110%; viability, T/C (second compound 0.1 µM, first compound 0.001 µM): 97.8%; viability, T/C (second compound 0.1 µM, first compound 0.00316 µM): 63.6%; viability, T/C [26]: 52.8%; viability, T/C (second compound 0.316 µM, first compound 0.000316 µM): 117%; viability, T/C (second compound 0.316 µM, first compound 0.001 µM): 98.1%; viability, T/C (second compound 0.316 µM, first compound 0.00316 µM): 65.5%; viability, T/C [27]: 44.6%; viability, T/C (second compound 1 µM, first compound 0.000316 µM): 117%; viability, T/C (second compound 1 µM, first compound 0.001 µM): 102%; viability, T/C (second compound 1 µM, first compound 0.00316 µM): 64.3%; viability, T/C [28]: 43.8%; viability, T/C (second compound 3.16 µM, first compound 0.000316 µM): 91.7%; viability, T/C (second compound 3.16 µM, first compound 0.001 µM): 79.7%; viability, T/C (second compound 3.16 µM, first compound 0.00316 µM): 51.9%; viability, T/C [29]: 29.7%; viability, T/C (second compound 10 µM, first compound 0.000316 µM): 58.1%; viability, T/C (second compound 10 µM, first compound 0.001 µM): 46.9%; viability, T/C (second compound 10 µM, first compound 0.00316 µM): 32.5%; viability, T/C [30]: 25.7% |
| CC(=O)OC12COC1CC(O)C1(C)C(=O)C(O)C3=C(C)C(OC(=O)C(O)C(NC(=O)OC(C)(C)C)c4ccccc4)CC(O)(C(OC(=O)c4ccccc4)C21)C3(C)C (centres undefined) + COc1cc2nc(C)nc(NC(C)c3cc(N)cc(C(F)(F)F)c3)c2cc1OC1CCOC1 | < 10 | < 10 | < 10 | < 10 | < 10 | 13.7 | 14.5 | 12.4 | 18.4 | 19 | 14.1 | 13.6 | 13.2 | 15.3 | 20.2 | 12.9 | 14 | 14.3 | 12.1 | 14.3 | viability, T/C [26]: 25%; viability, T/C [27]: 17.5%; viability, T/C [28]: 18.6%; viability, T/C [13]: 14.1%; viability, T/C [14]: 19.4%; viability, T/C [15]: 26.4%; viability, T/C [29]: 14%; viability, T/C [18]: 12.5%; viability, T/C [19]: 17.1%; viability, T/C [20]: 19.6%; viability, T/C [30]: 18.1%; viability, T/C [21]: 13.4%; viability, T/C [23]: 14.1%; viability, T/C [24]: 14.3%; viability, T/C [25]: 18.9% |

— PubChem BioAssay AID1963871 (Molecular Pharmacology Branch, DTP, NCI, 2024)
